Assay results as given in PMC7998669, “7-(2-Anilinopyrimidin-4-yl)-1-benzazepin-2-ones Designed by a “Cut and Glue” Strategy Are Dual Aurora A/VEGF-R Kinase Inhibitors” (Molecules, 2021).

Columns and labels:
Test in all cases: radiometric 33PanQinase protein kinase assay
Format in all cases: biochemical
Details in all cases: 1 µM ATP
CK2-alpha1 = target: T1, CK2-alpha1 (Homo sapiens, UniProt P68400)
T1 construct: host or cells: Sf9 (baculovirus)

EGF-R = target: T2, EGF-R (Homo sapiens, UniProt P00533)
T2 construct: host or cells: Sf9 (baculovirus)

ERBB2 = target: T3, ERBB2 (Homo sapiens, UniProt P04626)
T3 construct: host or cells: Sf9 (baculovirus)
T3 sequence (P04626 23-1255): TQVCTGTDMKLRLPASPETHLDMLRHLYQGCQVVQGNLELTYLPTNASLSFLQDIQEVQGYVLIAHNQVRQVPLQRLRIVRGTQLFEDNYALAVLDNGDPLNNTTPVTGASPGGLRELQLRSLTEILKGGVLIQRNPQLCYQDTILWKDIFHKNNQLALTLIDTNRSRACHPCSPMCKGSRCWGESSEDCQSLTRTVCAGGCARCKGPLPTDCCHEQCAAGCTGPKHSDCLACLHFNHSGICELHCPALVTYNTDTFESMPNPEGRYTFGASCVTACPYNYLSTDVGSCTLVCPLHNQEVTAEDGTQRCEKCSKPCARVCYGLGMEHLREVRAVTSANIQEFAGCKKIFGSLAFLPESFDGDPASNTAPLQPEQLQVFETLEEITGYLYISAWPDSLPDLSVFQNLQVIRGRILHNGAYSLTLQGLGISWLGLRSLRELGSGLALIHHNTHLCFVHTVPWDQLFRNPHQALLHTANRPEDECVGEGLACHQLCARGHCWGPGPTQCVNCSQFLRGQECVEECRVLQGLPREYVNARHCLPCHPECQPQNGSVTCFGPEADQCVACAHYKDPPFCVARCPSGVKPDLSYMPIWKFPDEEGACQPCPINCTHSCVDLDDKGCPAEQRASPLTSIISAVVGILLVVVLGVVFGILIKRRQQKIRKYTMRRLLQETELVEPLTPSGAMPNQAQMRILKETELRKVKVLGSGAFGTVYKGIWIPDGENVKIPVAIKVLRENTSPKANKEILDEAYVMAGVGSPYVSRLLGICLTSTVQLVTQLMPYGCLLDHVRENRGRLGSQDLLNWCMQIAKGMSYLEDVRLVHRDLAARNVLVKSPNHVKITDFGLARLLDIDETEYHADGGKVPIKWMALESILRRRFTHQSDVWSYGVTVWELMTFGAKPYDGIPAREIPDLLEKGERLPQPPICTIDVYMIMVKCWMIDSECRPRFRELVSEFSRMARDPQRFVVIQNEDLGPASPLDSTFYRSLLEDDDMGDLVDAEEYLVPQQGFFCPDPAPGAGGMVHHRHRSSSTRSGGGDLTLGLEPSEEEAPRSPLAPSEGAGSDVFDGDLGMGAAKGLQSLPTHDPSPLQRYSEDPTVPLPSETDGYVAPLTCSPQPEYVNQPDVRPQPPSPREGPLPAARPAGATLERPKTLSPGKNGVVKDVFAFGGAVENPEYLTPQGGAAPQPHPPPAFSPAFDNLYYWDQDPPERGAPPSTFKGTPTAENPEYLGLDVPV

PDGFR-beta = target: T4, PDGFR-beta (Homo sapiens, UniProt P09619)
T4 construct: host or cells: Sf9 (baculovirus)
T4 sequence (P09619 33-1106): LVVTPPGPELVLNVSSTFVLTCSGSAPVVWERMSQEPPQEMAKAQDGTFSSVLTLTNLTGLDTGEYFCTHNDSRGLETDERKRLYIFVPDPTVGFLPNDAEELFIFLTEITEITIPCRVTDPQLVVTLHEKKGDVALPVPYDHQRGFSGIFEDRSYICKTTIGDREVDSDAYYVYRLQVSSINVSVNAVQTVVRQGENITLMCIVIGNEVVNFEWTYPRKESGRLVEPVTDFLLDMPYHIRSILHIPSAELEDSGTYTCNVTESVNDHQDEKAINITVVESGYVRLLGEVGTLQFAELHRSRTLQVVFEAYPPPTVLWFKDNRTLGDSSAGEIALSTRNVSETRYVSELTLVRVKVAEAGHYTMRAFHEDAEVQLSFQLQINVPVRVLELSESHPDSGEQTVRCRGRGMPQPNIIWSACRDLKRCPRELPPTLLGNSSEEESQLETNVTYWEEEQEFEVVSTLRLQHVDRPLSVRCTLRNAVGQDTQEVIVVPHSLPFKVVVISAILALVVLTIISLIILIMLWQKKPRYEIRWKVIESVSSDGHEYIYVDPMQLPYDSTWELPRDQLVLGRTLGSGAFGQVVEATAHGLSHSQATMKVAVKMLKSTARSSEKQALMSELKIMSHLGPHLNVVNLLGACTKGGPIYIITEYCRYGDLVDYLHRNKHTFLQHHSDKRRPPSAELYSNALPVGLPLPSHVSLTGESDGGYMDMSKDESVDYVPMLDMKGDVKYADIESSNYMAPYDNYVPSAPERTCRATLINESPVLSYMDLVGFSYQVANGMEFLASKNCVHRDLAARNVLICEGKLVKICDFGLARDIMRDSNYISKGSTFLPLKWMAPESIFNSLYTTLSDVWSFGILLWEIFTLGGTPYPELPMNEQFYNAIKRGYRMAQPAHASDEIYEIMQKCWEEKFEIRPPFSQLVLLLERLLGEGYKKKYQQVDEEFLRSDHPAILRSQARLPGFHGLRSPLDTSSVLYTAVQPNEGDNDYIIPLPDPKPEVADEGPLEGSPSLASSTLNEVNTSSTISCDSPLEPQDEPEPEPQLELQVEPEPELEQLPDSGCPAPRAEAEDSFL

PDK1 = target: T5, PDK1 (Homo sapiens, UniProt O15530)
T5 construct: host or cells: Sf9 (baculovirus)
T5 sequence (O15530 whole entry): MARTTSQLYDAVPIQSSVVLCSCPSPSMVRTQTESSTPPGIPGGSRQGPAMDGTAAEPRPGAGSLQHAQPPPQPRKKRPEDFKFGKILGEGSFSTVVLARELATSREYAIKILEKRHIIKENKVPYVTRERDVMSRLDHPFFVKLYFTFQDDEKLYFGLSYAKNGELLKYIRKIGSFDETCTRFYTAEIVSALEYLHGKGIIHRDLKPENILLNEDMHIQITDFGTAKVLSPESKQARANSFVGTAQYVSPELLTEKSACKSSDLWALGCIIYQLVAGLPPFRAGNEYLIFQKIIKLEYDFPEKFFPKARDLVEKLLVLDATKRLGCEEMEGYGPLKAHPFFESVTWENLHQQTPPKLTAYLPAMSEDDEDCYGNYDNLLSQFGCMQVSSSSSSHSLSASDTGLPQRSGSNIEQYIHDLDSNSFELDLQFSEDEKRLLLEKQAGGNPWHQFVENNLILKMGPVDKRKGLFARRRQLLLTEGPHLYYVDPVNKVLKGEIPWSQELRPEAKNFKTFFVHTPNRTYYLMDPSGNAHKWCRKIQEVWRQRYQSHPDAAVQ

SAK = target: T6, SAK (Homo sapiens, UniProt O00444)
T6 construct: host or cells: Sf9 (baculovirus)
T6 sequence (O00444 whole entry): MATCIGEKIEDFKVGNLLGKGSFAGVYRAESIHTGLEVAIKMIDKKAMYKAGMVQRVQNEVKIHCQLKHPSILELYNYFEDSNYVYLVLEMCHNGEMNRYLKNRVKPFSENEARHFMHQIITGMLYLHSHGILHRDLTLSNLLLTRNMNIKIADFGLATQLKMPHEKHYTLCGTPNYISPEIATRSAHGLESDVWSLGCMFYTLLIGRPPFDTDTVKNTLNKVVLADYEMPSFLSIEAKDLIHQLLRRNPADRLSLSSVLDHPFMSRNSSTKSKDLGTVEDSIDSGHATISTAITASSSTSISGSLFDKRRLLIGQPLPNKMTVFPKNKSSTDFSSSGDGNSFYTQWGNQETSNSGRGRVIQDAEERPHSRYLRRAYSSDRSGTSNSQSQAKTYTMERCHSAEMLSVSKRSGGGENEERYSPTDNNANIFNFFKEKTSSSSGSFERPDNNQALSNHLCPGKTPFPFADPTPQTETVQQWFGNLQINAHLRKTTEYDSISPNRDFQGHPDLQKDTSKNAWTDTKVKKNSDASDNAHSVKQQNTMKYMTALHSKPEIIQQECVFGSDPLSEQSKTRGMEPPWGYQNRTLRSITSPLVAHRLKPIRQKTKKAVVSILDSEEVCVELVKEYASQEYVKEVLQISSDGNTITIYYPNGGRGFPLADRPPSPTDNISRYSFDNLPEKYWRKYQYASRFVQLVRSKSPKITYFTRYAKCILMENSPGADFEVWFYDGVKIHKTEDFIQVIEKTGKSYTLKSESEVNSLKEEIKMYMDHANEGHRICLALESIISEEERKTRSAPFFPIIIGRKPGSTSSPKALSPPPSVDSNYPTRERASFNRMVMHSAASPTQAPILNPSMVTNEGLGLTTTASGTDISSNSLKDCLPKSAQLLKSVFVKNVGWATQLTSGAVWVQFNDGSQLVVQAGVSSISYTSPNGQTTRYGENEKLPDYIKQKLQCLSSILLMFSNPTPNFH

T1 sequence (P68400 whole entry): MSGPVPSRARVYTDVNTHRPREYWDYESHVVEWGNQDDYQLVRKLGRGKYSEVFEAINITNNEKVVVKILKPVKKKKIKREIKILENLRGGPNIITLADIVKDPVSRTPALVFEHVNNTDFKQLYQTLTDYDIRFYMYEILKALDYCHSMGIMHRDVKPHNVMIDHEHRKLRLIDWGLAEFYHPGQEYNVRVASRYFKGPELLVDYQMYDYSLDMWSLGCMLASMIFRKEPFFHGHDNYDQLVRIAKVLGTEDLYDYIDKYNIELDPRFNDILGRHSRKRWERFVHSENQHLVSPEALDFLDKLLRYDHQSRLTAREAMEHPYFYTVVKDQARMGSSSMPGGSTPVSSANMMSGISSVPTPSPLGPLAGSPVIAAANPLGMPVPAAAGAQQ

- IC50 (CK2-alpha1): > 100 µM
- IC50 (EGF-R): > 100 µM
- IC50 (ERBB2): > 100 µM
- IC50 (PDGFR-beta): 44 µM
- IC50 (PDK1): > 100 µM
- IC50 (SAK): > 100 µM
Structure (SMILES): O=C1CCCc2cc(-c3ccnc(Nc4ccccc4)n3)ccc2N1 [Compound 2a, 7-(2-Anilinopyrimidin-4-yl)-1,3,4,5-tetrahydro-2H-1-benzazepin-2-one]
